Source: patent US20250223296A1, “HYDROXYMETHYL AZABICYCLO[2.2.1]HEPTANES AND MEDICAL USES THEREOF” (ATROGI AB, priority 2022, published 2025)
Structures can show the parent of a compound that is named as a salt.

What was measured:
L6-myotubes [1] = assay: Glucose uptake (3H-2-deoxyglucose) in differentiated L6-myotubes; format: cell-based; conditions: compound at 10 µM (1×10^−5 M) vs isoproterenol at 10 µM, read-out: Biological example 1: glucose uptake, activity compared to that of isoproterenol
Protocol: L6-myoblasts were grown in Dulbecco's Modified Eagle's Medium (DMEM) containing 1 g/L glucose supplemented with 10% fetal bovine serum, 2 mM L-Glutamine, 50 U/ml penicillin, 50 μg/mL streptomycin and 10 mM HEPES. Cells were plated at 1×10^5 cells per mL in 24-well plates. After reaching 90% confluence the cells were grown in medium containing 2% FBS for 7 days where upon cells differentiated into myotubes. Differentiated L6-myotubes were serum-starved overnight in medium containing 0.5% fatty-acid free BSA and stimulated with an agonist, with a final concentration of 1×10^−5 M. After 1 h 40 min the cells were washed with warm glucose free medium or PBS twice and another portion of agonist was added to the glucose free medium. After 20 min the cells were exposed to 50 nM ^3H-2-deoxyglucose for another 10 min before washed in ice cold glucose free medium or PBS three times and lysed in 400 μL/well 0.2 M NaOH for 1 h at 60° C. The cell lysate was mixed with 4 mL scintillation buffer (Emulsifier Safe, Perkin Elmer) and the radioactivity was detected in a β-counter (Tri-Carb 4810TR, Perkin Elmer). The activity for each compound is compared to that of isoproterenol.

L6-myotubes [2] = assay: Measurement of intracellular cAMP levels in differentiated L6 cells; format: cell-based; conditions: Rattus norvegicus, L6, 0.25 h, compound at 10 µM (1×10^−5 M), 15 min, vs isoproterenol at 10 µM, read-out: Biological example 2: intracellular cAMP levels, activity compared to that of isoproterenol
Protocol: L6-myoblasts were grown in Dulbecco's Modified Eagle's Medium (DMEM) containing 1 g/L glucose supplemented with 10% fetal bovine serum, 2 mM L-Glutamine, 50 U/ml penicillin, 50 μg/mL streptomycin and 10 mM HEPES. Cells were plated at 1×10^5 cells per mL in 24-well plates. After reaching 90% confluence the cells were grown in medium containing 2% FBS for 7 days where upon cells differentiated into myotubes. Differentiated cells were serum-starved overnight and stimulated with an agonist, final concentration 1×10^−5 M, for 15 min in stimulation buffer (HBSS supplemented with 1% BSA, 5 mM HEPES and 1 mM IBMX, pH 7.4). The medium was aspirated and 100 μL of 95% EtOH was added to each well of the 24-well plate and cells were kept at −20° C. overnight. The EtOH was allowed to evaporate and 500 μL of lysis buffer (1% BSA, 5 mM HEPES and 0.3% Tween-20, pH 7.4) was added to each well. The plate was kept at −80° C. for 30 min and then at −20° C. until the day of detection when the samples were thawed. Intracellular cAMP levels were detected using an alpha screen CAMP kit (6760635D from Perkin Elmer). The activity for each compound is compared to that of isoproterenol.

Compound	Emax at 10 µM (L6-myotubes [1])	Emax at 10 µM (L6-myotubes [2])
O[C@H](c1cncc(F)c1)C12CCC(C/C=C/c3ccccc3)(CC1)N2 [Example 29, (R)-(4-Cinnamyl-7-azabicyclo[2.2.1]heptan-1-yl)(5-fluoropyridin-3-yl)-methanol]	> 75%	< 25%
O[C@@H](c1cncc(F)c1)C12CCC(C/C=C/c3ccccc3)(CC1)N2 [Example 30, (S)-(4-Cinnamyl-7-azabicyclo[2.2.1]heptan-1-yl)(5-fluoropyridin-3-yl)-methanol]	25 to 50%	< 25%
O[C@H](c1cccc(F)c1)C12CCC(C/C=C/c3ccccc3)(CC1)N2 [Example 31, (R)-(4-Cinnamyl-7-azabicyclo[2.2.1]heptan-1-yl)(3-fluorophenyl)methanol]	> 75%	< 25%
O[C@@H](c1cccc(F)c1)C12CCC(C/C=C/c3ccccc3)(CC1)N2 [Example 32, (S)-(4-Cinnamyl-7-azabicyclo[2.2.1]heptan-1-yl)(3-fluorophenyl)methanol]	< 25%	< 25%
O[C@H](c1cncc(F)c1)C12CCC(CCCc3ccccc3)(CC1)N2 [Example 33, (R)-(5-Fluoropyridin-3-yl)(4-(3-phenylpropyl)-7-azabicyclo[2.2.1]heptan-1-yl)methanol hydrochloride]	50 to 75%	25 to 50%
O[C@@H](c1cncc(F)c1)C12CCC(CCCc3ccccc3)(CC1)N2 [Example 34, (S)-(5-Fluoropyridin-3-yl)(4-(3-phenylpropyl)-7-azabicyclo[2.2.1]heptan-1-yl)methanol hydrochloride]	50 to 75%	< 25%
O[C@H](c1cccc(F)c1)C12CCC(CCCc3ccccc3)(CC1)N2 [Example 35, (R)-(3-Fluorophenyl)(4-(3-phenylpropyl)-7-azabicyclo[2.2.1]heptan-1-yl)methanol hydrochloride]	> 75%	25 to 50%
O[C@@H](c1cccc(F)c1)C12CCC(CCCc3ccccc3)(CC1)N2 [Example 36, (S)-(3-Fluorophenyl)(4-(3-phenylpropyl)-7-azabicyclo[2.2.1]heptan-1-yl)methanol hydrochloride]	25 to 50%	< 25%
O[C@H](c1cccc(F)c1)C12CCC(CCc3ccc(Cl)cc3)(CC1)N2 [Example 37, (R)-4-(4-Chlorophenethyl)-7-azabicyclo[2.2.1]heptan-1-yl)-(3-fluorophenyl)methanol acetate]	< 25%	< 25%
O[C@@H](c1cccc(F)c1)C12CCC(CCc3ccc(Cl)cc3)(CC1)N2 [Example 38, (S)-(4-(4-Chlorophenethyl)-7-azabicyclo[2.2.1]heptan-1-yl)(3-fluoro-phenyl)methanol acetate]	< 25%	< 25%
COc1ccc(CCC23CCC([C@H](O)c4cccc(F)c4)(CC2)N3)cc1 [Example 39, (R)-(3-Fluorophenyl)(4-(4-methoxyphenethyl)-7-azabicyclo[2.2.1]heptan-1-yl)methanol acetate]	50 to 75%	< 25%
COc1ccc(CCC23CCC([C@@H](O)c4cccc(F)c4)(CC2)N3)cc1 [Example 40, (S)-(3-Fluorophenyl)(4-(4-methoxyphenethyl)-7-azabicyclo[2.2.1]heptan-1-yl)methanol acetate]	< 25%	< 25%
COc1ccc(CCC23CCC([C@H](O)c4cncc(F)c4)(CC2)N3)cc1 [Example 41, (R)-(5-Fluoropyridin-3-yl)(4-(4-methoxyphenethyl)-7-azabicyclo-[2.2.1]heptan-1-yl)methanol dihydrochloride]	50 to 75%	25 to 50%
COc1ccc(CCC23CCC([C@@H](O)c4cncc(F)c4)(CC2)N3)cc1 [Example 42, (S)-(5-Fluoropyridin-3-yl)(4-(4-methoxyphenethyl)-7-azabicyclo-[2.2.1]heptan-1-yl)methanol dihydrochloride]	< 25%	< 25%
